These results are taken from paper PMC9274004, “Deciphering the Molecular Interaction Between the Adhesion G Protein-Coupled Receptor ADGRV1 and its PDZ-Containing Regulator PDZD7” (Frontiers in Molecular Biosciences, 2022).

The test addresses T1, PDZD7 PDZ1ext (81-192) (Mus musculus, UniProt E9Q9W7).
T1 construct: PDZ1 (81-167), PDZ1ext (81-192); GST (followed by TEV site) (N, cleaved yes); made in house; host or cells: E. coli BL21 DE3
T1 sequence (E9Q9W7 81-192): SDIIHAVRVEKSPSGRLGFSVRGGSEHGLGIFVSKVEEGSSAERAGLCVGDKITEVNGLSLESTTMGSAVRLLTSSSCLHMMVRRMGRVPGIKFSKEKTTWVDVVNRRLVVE
The experiment in a line: NMR titration of PDZ1ext with ADGRV1 ligands. The test is classed as binding, murine. Particulars: NMR titration (1H-15N HSQC CSP), Tris HCl pH 7.5 (50 mM), 25°C; SD of Kd over at least ten shifting peaks; read-out: Kd. How it is done: All experiments were recorded at 25°C on a Bruker 800 MHz spectrometer equipped with a triple resonance ^1H{^13C/^15N} cryoprobe. The ^1H, ^15 N and ^13C backbone resonances assignment of PDZ1ext was carried out using 3D HNCA, HNCACB, HNCO, HNCOCA experiments (Tris HCl buffer adjusted to pH 6). The 2D ^1H-^15N HSQC spectra used to compare PDZ1, PDZ1ext, PDZ2 and PDZ2ext were recorded in Tris HCl pH 7.5 (50 mM). The 2D ^1H-^15N HSQC spectra used to compare PDZ1ext, PDZ2ext and P1P2 were recorded in Phosphate Buffer pH 6.5 (50 mM). Titration experiments of PDZ1 (WT), PDZ1ext (WT) and PDZ1ext (G103R) against ADGRV1pbm peptide were performed in Tris HCl pH 7.5 (50 mM). Averaged Chemical Shifts Perturbations (CSP) were calculated as: Δδavg = ((Δδ(^1H))^2+(Δδ(^15N)*0.159)^2)^½. […]
We monitored the interaction between PDZD7 constructs and a peptide (ADGRV1pbm) corresponding to the last 13 residues of ADGRV1, encompassing its PBM (sequence VELRRIPIADTHL-COOH; PBM underlined). We measured apparent Kd values of our constructs towards ADGRV1pbm using several biophysical methods (NMR, fluorescence, MicroScale Thermophoresis (MST)) (Table 1; Supplementary Figure S3–S5). […]

Where no end group is shown, it is not given here.

Consider VELRRIPIADTHL [ADGRV1pbm], for which the dissociation constant Kd (in general, the constant that tells how readily two partners part at equilibrium) is 47 ± 6 µM.
